Measured values from patent US20200139012A1, “METHODS AND MATERIALS FOR IMMUNOMODULATION OF TISSUE GRAFTS” (UNIVERSITY OF WYOMING, priority 2018, published 2020).

How the values were obtained:
[1] = Table 1; cited from earlier work
immune cells = settings: cited from earlier work; for in vitro effective concentration on immune cells: Table 1
[2] = tested on: DRGs, motor neurons, and Schwann cells; settings: 72 h; for Measures in vitro tolerated concentrations on PN cells: rat
Experimental: It is contemplated that delivery of immunosuppressive agents function within a favorable therapeutic window. PNs are comprised of three major nervous system cell types, motor neurons, sensory neurons, and Schwann cells. […] FIG. 1B illustrates data regarding the toxicity of tacrolimus to DRGs, motor neurons, and Schwann cells. FIG. 1C illustrates data regarding the toxicity of prednisolone to DRGs, motor neurons, and Schwann cells.
Cells (DRGs, motor neurons, and Schwann cells) were cultured for 72 hours in various concentration of the immunosuppressive drugs and viability was evaluated using the Alamar blue viability assay. ISV's were diluted into media using a maximum of 1% dimethylsulfoxide (DMSO).
FIG. 2B illustrates data regarding the viability of DRGs, motor neurons, and Schwann cells cultured in about 10 μM tracrolimus with differing concentrations of prednisolone.

Q: Which “Effective clinical plasma concentration” value [1] does the source give for `C[C@]12C=CC(=O)C=C1CC[C@@H]1[C@@H]2[C@@H](O)C[C@@]2(C)[C@H]1CC[C@]2(O)C(=O)CO` [Prednisolone, prednisolone] here?
A: 277 nM

Q: What about the “in vitro effective concentration on immune cells” value (immune cells) of the same compound?
A: 240 nM

Q: And the “effective dose for inhibiting activation and proliferation of immune cells” value (immune cells)?
A: greater than 240 μM

Q: What about the “tolerated by the cells at doses up to” value [2] of the same compound?
A: up to 200 μM

Q: And the “Measures in vitro tolerated concentrations on PN cells” value [2]?
A: 200 µM

Q: What does the source list for `C=CC[C@@H]1/C=C(\C)C[C@H](C)C[C@H](OC)[C@H]2O[C@@](O)(C(=O)C(=O)N3CCCC[C@H]3C(=O)O[C@H](/C(C)=C/[C@@H]3CC[C@@H](O)[C@H](OC)C3)[C@H](C)[C@@H](O)CC1=O)[C@H](C)C[C@@H]2OC` [Tacrolimus, tacrolimus]?
A: Effective clinical plasma concentration [1]: 21 nM; in vitro effective concentration on immune cells (immune cells): 0.5 to 1.0 nM; effective dose for inhibiting activation and proliferation of immune cells (immune cells): 50 to 100 µM; tolerated by the cells at doses up to [2]: 10 to 25 µM; Measures in vitro tolerated concentrations on PN cells [2]: 10 to 25 µM
